Laboratory results taken from patent US4704403A, “3-(2,2,2-trisubstituted hydrazinium) propionates” (priority 1983, dated 1987).

Assays:
white mice = experiment: Acute toxicity upon intraperitoneal administration to white mice; format: in vivo; settings: i.p.
Protocol: (§1) The acute toxicity of the compounds according to the present invention was studied on white mice of both sexes with a mass of 20-25 g. A saturated aqueous solution of the compounds or a suspension in Tween-80 was administered to the animals intraperitoneally. The observation over the animals was carried out for 14 days. The results obtained were processed following the Litchfield-Wilkoxon method. As it follows from the data shown in Table 5 hereinbelow, the studied compounds have a very low acute toxicity, thus providing a large spectrum of the therapeutic effect.

[1] = as above; format: in vivo; settings: mouse, in vivo, ip, 14 days observation, average values with confidential limits at P=0.05
Protocol: as §1

[2] = tested on: arrhythmia caused by introduction of calcium chloride; experiment: Antiarrhythmic activity on the model of arrhythmia caused by calcium chloride (antagonism towards calcium); format: in vivo, mice; settings: for Dose of calcium chloride causing arrhythmia: control 85.0; for Dose of calcium chloride causing heart arrest: control 100.0
Protocol: In experiments on white mice with a mass of 18-25 g narcotized with urethane an electrocardiogram was recorded in the second standard lead. A 2% solution of calcium chloride was introduced into the tail vein at a constant rate (0.01 ml for 2 seconds). The dose of calcium chloride causing arrhythmia and the dose causing heart arrest were determined. In experimental groups the test compounds were administered 20-40 minutes prior to the beginning of the experiment intraperitoneally.

[3] = tested on: hypertensive male rats of the Akamoto-Aoki line; experiment: Variation of arterial pressure upon intraperitoneal administration to hypertensive rats; format: in vivo
Protocol: The study of hypotensive properties of the compounds of this invention has been carried out of hypertensive male rats of the Akamoto-Aoki line aged 25-30 weeks. The animals were divided into groups (7-10 rats in each) and for 2 weeks before the beginning of the experiment they were subjected to an every-day training for adaptation to the unit for measurements of the arterial pressure. The systolic and diastolic arterial pressure were measured indirectly on the tail artery. The level of the arterial pressure prior to administration of the test compounds was measured by way of a triple determination thereof--2 days, one day and right before the administration of the preparation. The compounds were administered intraperitoneally in the form of a 2.5% aqueous solution or a 2.5% suspension in Twin-80 in the dose of 50 mg/kg. The measurement of the arterial pressure was effected 30 minutes, 1, 2, 3 and 4 hours and in some cases 24 hours after the administration of the preparation. For a number of compounds featuring a high efficiency, also determined was the dose causing reduction of the arterial pressure by 30% as compared with the starting level (ED30). The statistical processing of the data obtained was carried out using the Student certainty criterion.

[4] = tested on: spontaneously hypertensive rats of the Akamoto-Aoki line; experiment: Systolic arterial pressure of spontaneously hypertensive rats upon a repeated peroral administration; format: in vivo
Protocol: Thus, after a four-days course of administration (once a day, per os) of the compounds according to the present invention an essential reduction of the arterial pressure in the test animals is observed which is not returned to the initial level even an expiration of four days after discontinuation of the preparation administration, whereas the hypotensive effect of nifedipine is manifested for only 8 hours.

[5] = 30 minutes, 50 mg/kg i.p. (nifedipine 1 mg/kg i.p.)
[6] = 1 hour, 50 mg/kg i.p. (nifedipine 1 mg/kg i.p.)
[7] = 2 hours, 50 mg/kg i.p. (nifedipine 1 mg/kg i.p.)
[8] = 4 hours, 50 mg/kg i.p. (nifedipine 1 mg/kg i.p.)
[9] = after four-days p.o. course, benzyl 40 mg/kg, allyl 50 mg/kg, nifedipine dose not given
[10] = p.o. once a day, benzyl 40 mg/kg, allyl 50 mg/kg, nifedipine dose not given
[11] = p.o., benzyl 40 mg/kg, allyl 50 mg/kg, nifedipine dose not given

| Structure (SMILES) | Relative toxicity with respect to quinidine (LD50 / LD50 of quinidine) (white mice) | LD50 at 336 h [1] [mg/kg] | Dose of calcium chloride causing arrhythmia ([2]; compound dose 5 mg/kg i.p.) | Dose of calcium chloride causing heart arrest ([2]; compound dose 5 mg/kg i.p.) | Dose of calcium chloride causing arrhythmia ([2]; compound dose 15 mg/kg i.p.) | Dose of calcium chloride causing heart arrest ([2]; compound dose 15 mg/kg i.p.) | Average variation of the diastolic arterial pressure [3, 5] | Average variation of the systolic arterial pressure [3, 5] | Average variation of the diastolic arterial pressure [3, 6] | Average variation of the systolic arterial pressure [3, 6] | Average variation of the diastolic arterial pressure [3, 7] | Average variation of the systolic arterial pressure [3, 7] | Average variation of the diastolic arterial pressure [3, 8] | Average variation of the systolic arterial pressure [3, 8] | further results |
| --- | --- | --- | --- | --- | --- | --- | --- | --- | --- | --- | --- | --- | --- | --- | --- |
| CCC[N+](C)(C)NCCC(=O)[O-] [3-(2,2-dimethyl-2-propylhydrazinium)propionate] | 11.5 | 1800 | 112.5 | 123.0 | 125.3 | 140.5 |  |  |  |  |  |  |  |  |  |
| CC[N+](CC)(CC)NCCC(=O)[O-] [3-(2,2,2-Triethylhydrazinium)propionate, 3-(2,2,2-triethylhydrazinium)propionate monohydrate] | above 19.2 | > 3000 | 100.0 | 120.0 | 127.0 | 142.5 |  |  |  |  |  |  |  |  |  |
| CC[N+](C)(CC)NCCC(=O)[O-] [3-(2-methyl-2,2-diethylhydrazinium)propionate monohydrate] | 9.3 | 1450 | 105.5 | 118.6 | 120.0 | 136.0 | +10 % of the initial | +4 % of the initial | -4 % of the initial | +2 % of the initial | +1 % of the initial | 0 % of the initial | -8 % of the initial | -6 % of the initial |  |
| C[N+](C)(CC[N+](C)(C)NCCC(=O)[O-])NCCC(=O)[O-] [3-(2,2-dimethyl-2-[1',1'-dimethyl-2'-carboxylatoethylhydrazin-1'-ium]-ethylhydrazinium)propionate dihydrate] | 13.4 | 2100 | 96.0 | 112.0 | 108.5 | 120.0 |  |  |  |  |  |  |  |  |  |
| C#CC[N+](C)(C)NCCC(=O)[O-] [3-(2,2-dimethyl-2-propargylhydrazinium)propionate hydrogen bromide] | 10.5 | 1650 | 110.4 | 125.0 | 120.0 | 135.0 | -17 % of the initial | -6 % of the initial | -16 % of the initial | -10 % of the initial | -7 % of the initial | -10 % of the initial | -10 % of the initial | -6 % of the initial |  |
| C=C[C@H]1C[N@@]2CC[C@H]1C[C@@H]2[C@@H](O)c1ccnc2ccc(OC)cc12 [Quinidine, reference compound] | 1 | 156 |  |  |  |  |  |  |  |  |  |  |  |  | Dose of calcium chloride causing arrhythmia ([2]; compound dose 3 mg/kg i.p.): 126.9; Dose of calcium chloride causing heart arrest ([2]; compound dose 3 mg/kg i.p.): 136.0; Dose of calcium chloride causing arrhythmia ([2]; compound dose 10 mg/kg i.p.): 120.8; Dose of calcium chloride causing heart arrest ([2]; compound dose 10 mg/kg i.p.): 133.5 |
| COC(=O)C1=C(C)NC(C)=C(C(=O)OC)C1c1ccccc1[N+](=O)[O-] [Nifedipine, reference compound] |  |  |  |  |  |  | -8 % of the initial | -4 % of the initial | -14 % of the initial | -12 % of the initial | -21 % of the initial | -8 % of the initial | -31 % of the initial | -11 % of the initial | Systolic arterial pressure, 5th day [4, 9]: 178 mm Hg; Systolic arterial pressure, 8th day [4, 9]: 186 mm Hg; Systolic arterial pressure, 10th day [4, 9]: 182 mm Hg; Systolic arterial pressure, 2nd day after administration ([4]; p.o. once a day, allyl 50 mg/kg, nifedipine dose not given): 148 mm Hg; Systolic arterial pressure, 1st day after administration ([4]; p.o. once a day, benzyl 40 mg/kg (initial 195.8), allyl 50 mg/kg (initial 176.6), nifedipine dose not given (initial 184.0)): 150.0 mm Hg; Systolic arterial pressure, 2nd day before administration [4, 10]: 186 mm Hg; Systolic arterial pressure, 3rd day after administration [4, 10]: 153 mm Hg; Systolic arterial pressure, 4th day after administration [4, 10]: 146 mm Hg; Systolic arterial pressure, 4th day before administration [4, 10]: 180 mm Hg; Systolic arterial pressure, 3rd day before administration ([4]; p.o. once a day, benzyl 40 mg/kg, nifedipine dose not given): 183 mm Hg; Percent in parentheses (change of systolic pressure from initial), 2nd day after administration ([4]; p.o., allyl 50 mg/kg, nifedipine dose not given): 20%; Percent in parentheses (change of systolic pressure from initial), 1st day after administration [4, 11]: 18%; Percent in parentheses (change of systolic pressure from initial), 3rd day after administration [4, 11]: 17%; Percent in parentheses (change of systolic pressure from initial), 4th day after administration [4, 11]: 21%; Percent in parentheses (change of systolic pressure from initial), 4th day before administration [4, 11]: 2%; Percent in parentheses (change of systolic pressure from initial), 5th day [4, 11]: 3%; duration of hypotensive effect ([4]; repeated p.o.): 8 h |
| C[N+](C)(Cc1cccc2ccccc12)NCCC(=O)[O-] [3-(2,2-dimethyl-2-naphthylmethylhydrazinium)propionate] | above 19.2 | > 3000 | 108.0 | 132.5 | 126.7 | 143.0 | 0 % of the initial | 0 % of the initial | -3 % of the initial | 0 % of the initial | -2 % of the initial | -3 % of the initial | -14 % of the initial | -5 % of the initial | Average variation of the diastolic arterial pressure ([3]; 24 hours, 50 mg/kg i.p.): -7 % of the initial; Average variation of the systolic arterial pressure ([3]; 24 hours, 50 mg/kg i.p.): -4 % of the initial |
